# Data taken from patent US20260092061A1, “COMPOUNDS FOR TARGETED PROTEIN DEGRADATION” (Amphista Therapeutics Limited, priority 2022, published 2026).
# Read-outs that look alike come from different tables or passages of the source.
# Target: T1, BRD9 (Homo sapiens, UniProt Q9H8M2)
# T1 sequence (Q9H8M2 1-597): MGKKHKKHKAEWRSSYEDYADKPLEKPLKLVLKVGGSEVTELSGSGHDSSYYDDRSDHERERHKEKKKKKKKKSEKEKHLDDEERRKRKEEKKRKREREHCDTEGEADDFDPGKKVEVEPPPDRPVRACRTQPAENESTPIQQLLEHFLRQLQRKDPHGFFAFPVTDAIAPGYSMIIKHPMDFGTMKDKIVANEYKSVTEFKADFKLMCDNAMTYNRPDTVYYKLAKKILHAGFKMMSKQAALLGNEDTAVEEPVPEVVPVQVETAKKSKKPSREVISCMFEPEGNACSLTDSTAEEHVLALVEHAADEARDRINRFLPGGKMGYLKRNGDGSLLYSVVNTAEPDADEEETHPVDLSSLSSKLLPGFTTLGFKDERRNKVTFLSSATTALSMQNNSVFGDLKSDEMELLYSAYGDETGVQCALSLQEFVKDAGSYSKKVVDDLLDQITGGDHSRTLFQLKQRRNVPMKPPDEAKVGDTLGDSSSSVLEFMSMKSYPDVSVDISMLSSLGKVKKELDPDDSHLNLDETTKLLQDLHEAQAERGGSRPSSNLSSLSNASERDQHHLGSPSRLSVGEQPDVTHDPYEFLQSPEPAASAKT
# Experiment: Degradation of BRD9 (IF), immunofluorescence in MV4-11 cells, 24 hours (Assay Protocol 2)
# Format: cell-based
# Set-up: A suspension of MV4-11 cells (ATCC CRL-9591) was prepared; host or cells: MV4-11
# Settings: BRD9 degradation
# Summary of the method: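 MV4-11 cells treated with compound 24 h at 37° C., then fixed, permeabilised and immunostained for BRD9 (anti-BRD9 E4Q3F, Alexa 647 secondary, Hoechst counterstain). High-content imaging quantified nuclear BRD9 signal; % BRD9 remaining normalised to DMSO and 100 nM CFT-8634 controls.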
# [1] = Assay protocol 2, read-out: DC50
# [2] = MV4-11, Assay protocol 2, read-out: Dmax
SMILES,DC50 [1],Dmax [2],"Dmax (MV4-11, Table 4, determined according to Assay Protocol 2, read-out: Dmax^2)","DC50 (Table 4, determined according to Assay Protocol 2, read-out: DC50^2)"
"COc1cc(-c2cn(C)c(=O)c3ccsc23)cc(OC)c1CN1CCN(Cc2cccc3c2CCN(C(=O)/C(C#N)=C/C(C)(C)C)C3C)C2(CC2)C1 (mixture of isomers) [Compound B107, (E/Z)-2-(5-((7-(2,6-dimethoxy-4-(5-methyl-4-oxo-4,5-dihydrothieno[3,2-c]pyridin-7-yl)benzyl)-4,7-diazaspiro[2.5]octan-4-yl)methyl)-1-methyl-1,2,3,4-tetrahydroisoquinoline-2-carbonyl)-4,4-dimethylpent-2-enenitrile]",< 1.25 nM,> 75%,–,–
COc1cc(-c2cn(C)c(=O)c(C)c2C)cc(OC)c1CN1CCC(N(C)c2cccc3c2CCN(C(=O)/C(C#N)=C/C(C)(C)C)C3C)C(F)(F)C1 (mixture of isomers) [Compound C57],25 to 1000 nM,40 to 70%,–,–
"COc1cc(-c2cn(C)c(=O)c(C)c2C)cc(OC)c1CN1CCN(Cc2ccc3c(c2)[C@@H](C)N(C(=O)/C(C#N)=C/C(C)(C)CO)CC3)C2(CC2)C1 (single isomer, unassigned) [Compound C41, (E/Z)-2-(7-((7-(2,6-dimethoxy-4-(1,4,5-trimethyl-6-oxo-1,6-dihydropyridin-3-yl)benzyl)-4,7-diazaspiro[2.5]octan-4-yl)methyl)-1-methyl-1,2,3,4-tetrahydroisoquinoline-2-carbonyl)-5-hydroxy-4,4-dimethylpent-2-enenitrile]",1.25 to 10 nM,> 75%,–,–
COc1cc(-c2cn(C)c(=O)c(C)c2C)ccc1OC1CCC(Cc2cccc3c2CCN(C(=O)/C(C#N)=C/C(C)(C)N2CCN(C4COC4)CC2)C3C)CC1 (stereo not shown) [Compound C51],25 to 1000 nM,40 to 70%,–,–
"COc1cc(-c2cn(C)c(=O)c(C)c2C)cc(OC)c1CN1CCN(Cc2cccc3c2CCN(C(=O)/C(C#N)=C/c2cnc(C)cn2)C3C)CC1 (mixture of isomers) [Compound B89, (E/Z)-2-(5-((4-(2,6-dimethoxy-4-(1,4,5-trimethyl-6-oxo-1,6-dihydropyridin-3-yl)benzyl)piperazin-1-yl)methyl)-1-methyl-1,2,3,4-tetrahydroisoquinoline-2-carbonyl)-3-(5-methylpyrazin-2-yl)acrylonitrile]",< 1.25 nM,> 75%,–,–
COc1cc(-c2cn(C)c(=O)c(C)c2C)ccc1CC1CCN(Cc2cccc3c2CCN(C(=O)/C(C#N)=C/C(C)(C)C)C3C)C(C)(C)C1 (mixture of isomers) [Compound C74],25 to 1000 nM,> 75%,–,–
"COc1cc(-c2cn(C)c(=O)c(C)c2C)cc(OC)c1C(=O)N1CCCN(C(=O)/C(C#N)=C/C(C)(C)C)CC1 [BRD9v, (E/Z)-2-(4-(2,6-dimethoxy-4-(1,4,5-trimethyl-6-oxo-1,6-dihydropyridin-3-yl)benzoyl)-1,4-diazepane-1-carbonyl)-4,4-dimethylpent-2-enenitrile]",–,–,50 to 70%,< 25 nM
"COc1cc(-c2cn(C)c(=O)c3[nH]ncc23)cc(OC)c1CN1CCN(Cc2cccc3c2CCN(C(=O)/C(C#N)=C/c2cccc(Br)n2)C3C)CC1 (mixture of isomers) [Compound B96, (E/Z)-3-(6-bromopyridin-2-yl)-2-(5-((4-(2,6-dimethoxy-4-(6-methyl-7-oxo-6,7-dihydro-1H-pyrazolo[3,4-c]pyridin-4-yl)benzyl)piperazin-1-yl)methyl)-1-methyl-1,2,3,4-tetrahydroisoquinoline-2-carbonyl)acrylonitrile]",1.25 to 10 nM,40 to 70%,–,–
"CC[C@@H]1c2cccc(CN3CCN(Cc4c(OC)cc(-c5cn(C)c(=O)c(C)c5C)cc4OC)C4(CC4)C3)c2CCN1C(=O)/C(C#N)=C/C(C)(C)C (single isomer, unassigned) [Compound C91, (E/Z)-2-(5-((4-(2,6-dimethoxy-4-(1,4,5-trimethyl-6-oxo-1,6-dihydropyridin-3-yl)benzyl)-4,7-diazaspiro[2.5]octan-7-yl)methyl)-1-ethyl-1,2,3,4-tetrahydroisoquinoline-2-carbonyl)-4,4-dimethylpent-2-enenitrile]",< 1.25 nM,> 75%,–,–
"COc1cc(-c2cn(C)c(=O)c(C)c2C)cc(OC)c1CN1CCN(Cc2ccc3c(c2)[C@@H](C)N(C(=O)/C(C#N)=C/C(C)(C)C)CC3)C2(CC2)C1 (single isomer, unassigned) [Compound C35, (E/Z)-2-(7-((7-(2,6-dimethoxy-4-(1,4,5-trimethyl-6-oxo-1,6-dihydropyridin-3-yl)benzyl)-4,7-diazaspiro[2.5]octan-4-yl)methyl)-1-methyl-1,2,3,4-tetrahydroisoquinoline-2-carbonyl)-4,4-dimethylpent-2-enenitrile]",< 1.25 nM,> 75%,–,–
"COc1cc(-c2cn(C)c(=O)c(C)c2C)cc(OC)c1CN1CCN(Cc2cccc3c2CCN(C(=O)/C(C#N)=C/C(C)(C)CF)[C@@H]3C(C)C)CC12CC2 (single isomer, unassigned) [Compound C103, (E/Z)-2-(5-((4-(2,6-dimethoxy-4-(1,4,5-trimethyl-6-oxo-1,6-dihydropyridin-3-yl)benzyl)-4,7-diazaspiro[2.5]octan-7-yl)methyl)-1-isopropyl-1,2,3,4-tetrahydroisoquinoline-2-carbonyl)-5-fluoro-4,4-dimethylpent-2-enenitrile]",< 1.25 nM,> 75%,–,–
"COc1cc(-c2cn(C)c(=O)c(C)c2C)cc(OC)c1CN1CCN(Cc2ccc3c(c2)[C@@H](C(C)C)N(C(=O)/C(C#N)=C/C(C)(C)CF)CC3)C2(CC2)C1 (single isomer, unassigned) [Compound C97, (E/Z)-2-(7-((7-(2,6-dimethoxy-4-(1,4,5-trimethyl-6-oxo-1,6-dihydropyridin-3-yl)benzyl)-4,7-diazaspiro[2.5]octan-4-yl)methyl)-1-isopropyl-1,2,3,4-tetrahydroisoquinoline-2-carbonyl)-5-fluoro 4,4-dimethylpent-2-enenitrile]",10 to 25 nM,70 to 75%,–,–
"COc1cc(/C=C(\C#N)C(=O)N2CCc3c(CN4CCN(Cc5c(OC)cc(-c6cn(C)c(=O)c(C)c6C)cc5OC)CC4)cccc3C2C)c(F)cn1 (mixture of isomers) [Compound B92, (E/Z)-2-(5-((4-(2,6-dimethoxy-4-(1,4,5-trimethyl-6-oxo-1,6-dihydropyridin-3-yl)benzyl)piperazin-1-yl)methyl)-1-methyl-1,2,3,4-tetrahydroisoquinoline-2-carbonyl)-3-(5-fluoro-2-methoxypyridin-4-yl)acrylonitrile]",< 1.25 nM,40 to 70%,–,–
"COc1cc(-c2cn(C)c(=O)c(C)c2C)cc(OC)c1CN1CCN(Cc2ccc3c(c2)[C@H](C)N(C(=O)/C(C#N)=C/C(C)(C)C)CC3)[C@H](C)C1 (single isomer, unassigned) [Compound C3]",25 to 1000 nM,40 to 70%,–,–
"COc1cc(-c2cn(C)c(=O)c(C)c2C)cc(OC)c1CN1CCN(Cc2cccc3c2CCN(C(=O)/C(C#N)=C/c2cccc(F)c2F)C3C)CC1 (mixture of isomers) [Compound B91, (E/Z)-3-(2,3-difluorophenyl)-2-(5-((4-(2,6-dimethoxy-4-(1,4,5-trimethyl-6-oxo-1,6-dihydropyridin-3-yl)benzyl)piperazin-1-yl)methyl)-1-methyl-1,2,3,4-tetrahydroisoquinoline-2-carbonyl)acrylonitrile]",1.25 to 10 nM,40 to 70%,–,–
"COc1cc(-c2cn(C)c(=O)c(C)c2C)cc(OC)c1CN1C[C@H](C)N(Cc2cccc3c2CCN(C(=O)/C(C#N)=C/C(C)(C)CF)C3C(C)C)C[C@H]1C (mixture of isomers) [Compound C98, (E/Z)-2-(5-(((2S,5R)-4-(2,6-dimethoxy-4-(1,4,5-trimethyl-6-oxo-1,6-dihydropyridin-3-yl)benzyl)-2,5-dimethylpiperazin-1-yl)methyl)-1-isopropyl-1,2,3,4-tetrahydroisoquinoline-2-carbonyl)-5-fluoro-4,4-dimethylpent-2-enenitrile]",10 to 25 nM,> 75%,–,–
"COc1cc(-c2cn(C)c(=O)c3[nH]ncc23)cc(OC)c1CN1CCN(Cc2ccc3c(c2)[C@@H](C)N(C(=O)/C(C#N)=C/C(C)(C)C)CC3)C2(CC2)C1 (single isomer, unassigned) [Compound C6, (E/Z)-2-(7-((7-(2,6-dimethoxy-4-(6-methyl-7-oxo-6,7-dihydro-1H-pyrazolo[3,4-c]pyridin-4-yl)benzyl)-4,7-diazaspiro[2.5]octan-4-yl)methyl)-1-methyl-1,2,3,4-tetrahydroisoquinoline-2-carbonyl)-4,4-dimethylpent-2-enenitrile]",< 1.25 nM,> 75%,–,–
